Usually IC50 stands for the concentration that gives 50% inhibition.

Each structure is given as a SMILES string.

These results are taken from patent US11408885B2, “Compositions and multiplex assays for characterizing active proteases and their inhibitors” (Massachusetts Institute of Technology, priority 2017, dated 2022).

One assay addresses MMP13 (Homo sapiens, UniProt P45452). Briefly: FRET substrate cleavage by recombinant MMP, inhibition by activity-based probe. The class given is biochemical. Particulars: FRET substrate PEPDAB008 10 μM, read-out: IC50, inhibition of substrate cleavage of active MMP. The text has this:
(§1) The binding of an activity-based probe, e.g., HxBP-Bt, to the active site of an MMP (as shown in FIG. 1A) would effectively reduce (or inhibit) the ability of such MMP to cleave its substrate. […] This correlation should also provide an IC50 value to measure the sensitivity/potency of the MAMBI system to bind, and thereby quantify, active MMPs. […] Fluorescence resonance energy transfer (FRET) technique is used to determine if a substrate is cleaved by pre-labeling two parts of a substrate molecule with a donor chromophore and an acceptor chromophore, respectively, and measuring the energy transfer efficiency from the donor to the acceptor chromophore to determine if two fluorophores are within a certain distance of each other, i.e. the substrate is intact and uncleaved. Here, HxBP-Bt bound MMP samples were mixed with chromophore-labeled substrate peptides in 384-well OptiPlates® at 37° C. using timelapse fluorimetry in the Spectromax® M3 and M2e fluorimeters (Molecular Devices). The fluorescence was monitored by plate reader. In general, readings measured fluorescence every 20 minutes for roughly five hours and the reported rate of increase in fluorescence was calculated from fitting a linear portion of this increase including at least 4 data points and subtracting the average increase in background, protease-free conditions. […] Reaction velocities were calculated from linear reaction periods from raw fluorescence value time courses. […] Relative rates of FRET substrate cleavage among samples with the addition of HxBP-Bt were quantified and compared with the rates without HxBP-Bt. Activities of recombinant MMPs 1, 7, 8, 12 and 13, in the presence or absence of HxBP-Bt probe, were characterized with […]008 (Dabcyl-[…]); MMPs 2 and 9 with […]011 (Dabcyl-[…]) and MMPs 3 and 10 with […]052 (Dabcyl-[…]). […] These IC50 values were used to estimate binding off-rates in the computational model. IC50 of the inhibitor was calculated by fitting the resulting dose-dependent data with the PRISM software (GraphPad, USA)

For the next assay, the target named is MMP8 (Homo sapiens, UniProt P22894). The assay is described as above. It counts as biochemical. Particulars: FRET substrate PEPDAB008 10 μM, read-out: IC50, inhibition of substrate cleavage of active MMP.
MMP8, sequence (P22894 101-467, species assumed): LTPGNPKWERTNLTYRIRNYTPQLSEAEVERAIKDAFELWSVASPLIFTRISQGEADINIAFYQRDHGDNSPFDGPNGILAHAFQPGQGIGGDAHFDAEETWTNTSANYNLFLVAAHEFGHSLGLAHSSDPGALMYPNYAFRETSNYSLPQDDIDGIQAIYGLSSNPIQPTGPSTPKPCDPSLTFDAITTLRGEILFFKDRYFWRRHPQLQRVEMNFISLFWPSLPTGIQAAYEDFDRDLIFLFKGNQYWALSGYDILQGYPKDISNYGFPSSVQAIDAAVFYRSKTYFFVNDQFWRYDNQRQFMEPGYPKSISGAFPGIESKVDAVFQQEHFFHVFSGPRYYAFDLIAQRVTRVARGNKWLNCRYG
From the text: as §1

The target of a further assay is MMP10 (Homo sapiens, UniProt P09238). Described as above. Particulars: FRET substrate PEPDAB052 10 μM, read-out: IC50, inhibition of substrate cleavage of active MMP. The class given is biochemical.
MMP10, sequence (P09238 99-476): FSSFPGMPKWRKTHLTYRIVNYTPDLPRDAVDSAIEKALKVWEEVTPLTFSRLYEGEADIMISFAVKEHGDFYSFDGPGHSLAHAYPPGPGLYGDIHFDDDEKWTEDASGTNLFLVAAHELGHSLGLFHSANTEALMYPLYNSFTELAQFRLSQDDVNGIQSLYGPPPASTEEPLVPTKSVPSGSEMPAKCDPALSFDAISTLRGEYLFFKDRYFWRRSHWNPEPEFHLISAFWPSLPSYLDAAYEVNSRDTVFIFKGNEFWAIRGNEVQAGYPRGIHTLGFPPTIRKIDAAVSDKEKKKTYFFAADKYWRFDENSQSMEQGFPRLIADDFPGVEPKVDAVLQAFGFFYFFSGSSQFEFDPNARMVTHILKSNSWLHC
From the text: as §1

The next assay deals with MMP12 (Homo sapiens, UniProt P39900). The assay is described as above. The class given is biochemical. Also on record: The recombinant catalytic domains of human MMPs 7 and 9 were purchased from Enzo Life Sciences, and of MMP 12 from Anaspec; purchased Anaspec. As to conditions: FRET substrate PEPDAB008 10 μM, read-out: IC50, inhibition of substrate cleavage of active MMP. The text has this: (§2) The binding of an activity-based probe, e.g., HxBP-Bt, to the active site of an MMP (as shown in FIG. 1A) would effectively reduce (or inhibit) the ability of such MMP to cleave its substrate. […] This correlation should also provide an IC50 value to measure the sensitivity/potency of the MAMBI system to bind, and thereby quantify, active MMPs. […] Fluorescence resonance energy transfer (FRET) technique is used to determine if a substrate is cleaved by pre-labeling two parts of a substrate molecule with a donor chromophore and an acceptor chromophore, respectively, and measuring the energy transfer efficiency from the donor to the acceptor chromophore to determine if two fluorophores are within a certain distance of each other, i.e. the substrate is intact and uncleaved. […] The fluorescence was monitored by plate reader. In general, readings measured fluorescence every 20 minutes for roughly five hours and the reported rate of increase in fluorescence was calculated from fitting a linear portion of this increase including at least 4 data points and subtracting the average increase in background, protease-free conditions. […] Reaction velocities were calculated from linear reaction periods from raw fluorescence value time courses. […] Relative rates of FRET substrate cleavage among samples with the addition of HxBP-Bt were quantified and compared with the rates without HxBP-Bt. […]
MMP12, sequence (P39900 106-263 limits assumed): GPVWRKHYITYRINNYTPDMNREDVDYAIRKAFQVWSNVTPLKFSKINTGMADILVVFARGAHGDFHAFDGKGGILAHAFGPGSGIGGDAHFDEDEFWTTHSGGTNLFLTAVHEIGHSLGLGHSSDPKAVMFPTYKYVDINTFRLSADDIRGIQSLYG

Assay [1] relates to proteases in peritoneal fluid of control donors and endometriosis patients. Briefly: FRET substrate cleavage in clarified peritoneal fluid. It counts as biochemical, human. Particulars: peritoneal fluids of six control donors and six endometriosis patients; 500 nM or 1500 nM HxBP-Bt. From the text: Clarified peritoneal fluid from patients with endometriosis was compared to that from a control population with regards to the active MMP compositions and quantities. Peritoneal fluid is a mixture of cell debris, leukocytes, and thousands of soluble proteins including over 100 proteases and protease inhibitors that is contained within the pelvic cavity and interacts with endometriotic lesions (Amon, et al, PLoS ONE, 5(6) (2010)).
All laparoscopy patients provided informed consent in accordance with a protocol approved by the Partners Human Research Committee and the Massachusetts Institute of Technology Committee on the Use of Humans as Experimental Subjects. Enrollment was limited to pre-menopausal women with regular cycles (26-32 days) and excluded individuals who had received hormonal treatment within three months of surgery. Moderate/Severe (Stage III/IV) endometriosis was diagnosed according to the revised criteria of the American Society for Reproductive Medicine 8. Peritoneal fluid was aspirated from the rectouterine pouch immediately following trocar insertion and prior to peritoneal lavage or surgical manipulation. Upon collection, specimens were immediately placed on wet ice and clarified within 15 min. by centrifugation for 10 min. at 1000 rcf. Clarified aspirates were transported to the laboratory on ice, aliquoted, and stored at −80° C. until analysis.

The target in a further assay is T1, MMP7 (Homo sapiens, UniProt P09237).
T1 sequence (P09237 95-267): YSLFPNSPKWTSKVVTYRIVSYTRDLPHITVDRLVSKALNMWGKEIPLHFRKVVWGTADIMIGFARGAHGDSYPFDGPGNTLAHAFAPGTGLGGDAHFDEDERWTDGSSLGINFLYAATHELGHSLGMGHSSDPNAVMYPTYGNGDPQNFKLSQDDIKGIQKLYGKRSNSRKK
The assay can be described thus: FRET substrate cleavage by recombinant MMP, inhibition by activity-based probe. The class given is biochemical. Also on record: The recombinant catalytic domains of human MMPs 7 and 9 were purchased from Enzo Life Sciences, and of MMP 12 from Anaspec; purchased Enzo Life Sciences. Particulars: FRET substrate PEPDAB008 10 μM, read-out: IC50, inhibition of substrate cleavage of active MMP.
From the text: as §2

The target of the next assay is MMP9 (Homo sapiens, UniProt P14780). Described as above. The class given is biochemical. Also on record: The recombinant catalytic domains of human MMPs 7 and 9 were purchased from Enzo Life Sciences, and of MMP 12 from Anaspec; purchased Enzo Life Sciences. As to conditions: FRET substrate PEPDAB011 10 μM, read-out: IC50, inhibition of substrate cleavage of active MMP.
MMP9, sequence (P14780 107-449 limits assumed): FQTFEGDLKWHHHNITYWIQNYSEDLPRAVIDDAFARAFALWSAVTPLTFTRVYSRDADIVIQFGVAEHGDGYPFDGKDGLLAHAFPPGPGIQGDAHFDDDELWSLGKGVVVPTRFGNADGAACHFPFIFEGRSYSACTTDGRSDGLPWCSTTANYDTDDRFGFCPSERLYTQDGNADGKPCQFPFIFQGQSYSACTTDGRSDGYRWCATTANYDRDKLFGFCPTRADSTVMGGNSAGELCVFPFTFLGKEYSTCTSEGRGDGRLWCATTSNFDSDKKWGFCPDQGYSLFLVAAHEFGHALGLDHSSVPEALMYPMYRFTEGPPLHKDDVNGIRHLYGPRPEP
From the text: as §2

`CC(C)CC(C(=O)NC(Cc1ccc(C(=O)c2ccccc2)cc1)C(=O)NCCOCCOCCOCC(=O)NCC(C)(C)SSC(C)(C)CNC(=O)CCCCC1SCC2NC(=O)NC21)C(O)C(=O)NO` (stereo not shown) [HxBP-Bt, biotin-tagged hydroxamate benzophenone (HxBP-Bt) probe]: the half-inhibitory concentration (IC50) was determined as 2.3 nM at MMP13; 2.4 nM at MMP8; 29 nM at MMP10; 4 nM at MMP12; 9.2 nM at MMP7; 2.7 nM at MMP9. Moreover, the “effect on substrate cleavage” value in assay [1] is listed as “inhibited substrate cleavage in all samples”.
